Assay results: PubChem BioAssay (NCI)
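Assay format: 96-well plates, 48-hour exposure. GI50 = concentration required for 50% inhibition of growth. TGI marks complete inhibition of growth.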

What was measured:
Experiment in all cases: NCI tumour cell line growth inhibition, 48 h
[1] = test system: A498 renal
[2] = test system: A549 NSCLC
[3] = test system: CAKI-1 renal
[4] = test system: COLO 205 colon
[5] = test system: DU-145 prostate
[6] = test system: HCT-116 colon
[7] = test system: HL-60(TB) leukemia
[8] = test system: HS 578T breast
[9] = test system: HT29 colon
[10] = test system: IGROV1 ovarian
[11] = test system: NCI-H460 lung
[12] = test system: OVCAR-3 ovarian
[13] = test system: OVCAR-5 ovarian
[14] = test system: OVCAR-8 ovarian
[15] = test system: SF-295 CNS
[16] = test system: TK-10 renal
[17] = test system: U251 CNS
[18] = test system: UO-31 renal

Work on `OC(c1cc(-c2ccc(C(F)(F)F)cc2)nc(-c2ccc(C(F)(F)F)cc2)c1)C1CCCCN1` (stereo unspecified) yielded a GI50 [1] of 1.56 µM, a TGI [1] of 2.96 µM and a GI50 [2] of 1.72 µM. The TGI [2] was 3.28 µM, the GI50 [3] was 1.89 µM and the TGI [3] was 3.79 µM. The GI50 [4] was 0.893 µM, the TGI [4] was 2.1 µM and the GI50 [5] was 1.78 µM. It also gave a TGI [5] of 3.16 µM, a GI50 [6] of 1.66 µM and a TGI [6] of 3.18 µM. The GI50 [7] was 2.05 µM, the TGI [7] was 3.88 µM and the GI50 [8] was 1.47 µM. For the same compound, the TGI [8] was 3.2 µM, the GI50 [9] was 1.62 µM and the TGI [9] was 3.09 µM. The GI50 [10] was 1.83 µM, the TGI [10] was 3.67 µM and the GI50 [11] was 1.62 µM. The TGI [11] was 3.08 µM, the GI50 [12] was 1.78 µM and the TGI [12] was 3.25 µM. It also gave a GI50 [13] of 1.58 µM, a TGI [13] of 3.06 µM and a GI50 [14] of 1.47 µM. The TGI [14] was 3.1 µM, the GI50 [15] was 1.75 µM and the TGI [15] was 3.33 µM. For the same compound, the GI50 [16] was 1.82 µM, the TGI [16] was 3.28 µM and the GI50 [17] was 1.71 µM. The TGI [17] was 3.32 µM, the GI50 [18] was 1.56 µM and the TGI [18] was 3.3 µM.
